This assay deals with HBV. Nature of the assay: Determination of HBV DNA from the supernatants of HepAD38 cells (anti-HBV activity). Format: cell-based, hepatitis B virus. To be noted: Hepatitis B virus, read-out: Cell Activity (EC50). As for the experimental part:
Determination of HBV DNA from the Supernatants of HepAD38 Cells
The anti-HBV activity was analysed in the stable transfected cell line HepAD38, which has been described to secrete high levels of HBV virion particles (Ladner et al., 1997). In brief, HepAD38 cells were cultured at 37° C. at 5% CO2 and 95% humidity in 200 μl maintenance medium, which was Dulbecco's modified Eagle's medium/Nutrient Mixture F-12 (Gibco, Karlsruhe), 10% fetal bovine serum (PAN Biotech Aidenbach) supplemented with 50 μg/ml penicillin/streptomycin (Gibco, Karlsruhe), 2 mM L-glutamine (PAN Biotech, Aidenbach), 400 μg/ml G418 (AppliChem, Darmstadt) and 0.3 μg/ml tetracycline. Cells were subcultured once a week in a 1:5 ratio, but were usually not passaged more than ten times. For the assay 60,000 cells were seeded in maintenance medium without any tetracycline into each well of a 96-well plate and treated with serial half-log dilutions of test compound. To minimize edge effects the outer 36 wells of the plate were not used but were filled with assay medium. On each assay plate six wells for the virus control (untreated HepAD38 cells) and six wells for the cell control (HepAD38 cells treated with 0.3 μg/ml tetracycline) were allocated, respectively. In addition, one plate set with reference inhibitors like BAY 41-4109, entecavir, and lamivudine instead of screening compounds were prepared in each experiment. In general, experiments were performed thrice in triplicates. At day 6 HBV DNA from 100 μl filtrated cell culture supernatant (AcroPrep Advance 96 Filter Plate, […] Supor membran, PALL GmbH, Dreieich) was automatically purified on the MagNa Pure LC instrument using the MagNA Pure 96 DNA and Viral NA Small Volume Kit (Roche Diagnostics, Mannheim) according to the instructions of the manufacturer. EC50 values were calculated from relative copy numbers of HBV DNA. In brief, 5 μl of the 100 μl eluate containing HBV DNA were subjected to PCR LC480 Probes Master Kit (Roche) together with 1 μM antisense primer […], 0.5 μM sense primer […], 0.3 μM hybprobes […]-FL and LC640-[…]-PH (TIBMolBiol, Berlin) to a final volume of 12.5 μl. The PCR was performed on the Light Cycler 480 real time system (Roche Diagnostics, Mannheim) using the following protocol: Pre-incubation for 1 min at 95° C., amplification: 40 cycles×(10 sec at 95° C., 50 sec at 60° C., 1 sec at 70° C.), cooling for 10 sec at 40° C. Viral load was quantitated against known standards using HBV plasmid DNA of pCH-9/3091 (Nassal et al., 1990, Cell 63: 1357-1363) and the LightCycler 480 SW 1.5 software (Roche Diagnostics, Mannheim) and EC50 values were calculated using non-linear regression with GraphPad Prism 6 (GraphPad Software Inc., La Jolla, USA).

[1] abbreviates: 144 h, HBV DNA in HepAD38 supernatant at day 6.

Results on 26 compounds are retold here after patent publication US11267825B2 (AICURIS GMBH & CO. KG, priority 2017, dated 2022).

Structures can show the parent of a compound that is named as a salt. Where two headings read alike, the source gives them in different places. A value given as a limit tells only on which side of the number the result lay.

One may read the EC50 as the concentration that produces a half-maximal response.

Turning to `O=C(c1cc2cc(F)c(Cl)cc2[nH]1)N1CCc2nc(NCC3(O)CCC3)sc2C1` [Example 373, 1-({[5-(6-chloro-5-fluoro-1H-indole-2-carbonyl)-4H,5H,6H,7H-[1,3]thiazolo[5,4-c]pyridin-2-yl]amino}methyl)cyclobutan-1-ol], the EC50 under setting [1] was below 1000 nM.

As to `O=C(c1cc2c(Cl)cc(F)cc2[nH]1)N1CCc2nc(N[C@H]3CC[C@@H](O)CC3)sc2C1` [Example 343, (1s,4s)-4-{[5-(4-chloro-6-fluoro-1H-indole-2-carbonyl)-4H,5H,6H,7H-[1,3]thiazolo[5,4-c]pyridin-2-yl]amino}cyclohexan-1-ol], the EC50 under setting [1] was below 1000 nM.

With `O=C(c1cc2ccccc2[nH]1)N1CCc2nc(NCC3(O)CC(F)(F)C3)sc2C1` [Example 440, 3,3-difluoro-1-({[5-(1H-indole-2-carbonyl)-4H,5H,6H,7H-[1,3]thiazolo[5,4-c]pyridin-2-yl]amino}methyl)cyclobutan-1-ol], under setting [1], the EC50 was below 1000 nM.

With `Cc1cc(F)cc2[nH]c(C(=O)N3CCc4nc(NC(=O)C5(C)CC5)sc4C3)cc12` [Example 307, N-[5-(6-fluoro-4-methyl-1H-indole-2-carbonyl)-4H,5H,6H,7H-[1,3]thiazolo[5,4-c]pyridin-2-yl]-1-methylcyclopropane-1-carboxamide], the EC50 under setting [1] was below 1000 nM.

As for `CC(C)CC(CO)CNc1nc2c(s1)CN(C(=O)c1cc3ccccc3[nH]1)CC2` (centres unmarked) [Example 287, 2-({[5-(1H-indole-2-carbonyl)-4H,5H,6H,7H-[1,3]thiazolo[5,4-c]pyridin-2-yl]amino}methyl)-4-methylpentan-1-ol], the EC50 under setting [1] was below 1000 nM.

As to `O=C(c1cc2ccccc2[nH]1)N1CCc2nc(NCC(F)(F)C3CC3)sc2C1` [Example 436, N-(2-cyclopropyl-2,2-difluoroethyl)-5-(1H-indole-2-carbonyl)-4H,5H,6H,7H-[1,3]thiazolo[5,4-c]pyridin-2-amine], the EC50 under setting [1] was below 1000 nM.

Regarding `CC(=O)N1CC(C(=O)Nc2nc3c(s2)CN(C(=O)c2cc4ccccc4[nH]2)CC3)C1` [Example 382, 1-acetyl-N-[5-(1H-indole-2-carbonyl)-4H,5H,6H,7H-[1,3]thiazolo[5,4-c]pyridin-2-yl]azetidine-3-carboxamide], the EC50 under setting [1] is below 1000 nM.

Consider `O=C(c1cc2ccccc2[nH]1)N1CCc2nc(NC(=O)C3(O)CC3)sc2C1` [Example 346, 1-hydroxy-N-[5-(1H-indole-2-carbonyl)-4H,5H,6H,7H-[1,3]thiazolo[5,4-c]pyridin-2-yl]cyclopropane-1-carboxamide], for which the EC50 under setting [1] is below 1000 nM.

Turning to `CN1CC(C(=O)Nc2nc3c(s2)CN(C(=O)c2cc4ccccc4[nH]2)CC3)C1` [Example 383, N-[5-(1H-indole-2-carbonyl)-4H,5H,6H,7H-[1,3]thiazolo[5,4-c]pyridin-2-yl]-1-methylazetidine-3-carboxamide], under setting [1], the EC50 lay in the range of 1000 to 10000 nM.

For the compound `CC(O)c1ccc(F)c2[nH]c(C(=O)N3CCc4nc(NCC5CCOC5)sc4C3)cc12` (centres unmarked) [Example 257, 1-[7-fluoro-2-(2-{[(oxolan-3-yl)methyl]amino}-4H,5H,6H,7H-[1,3]thiazolo[5,4-c]pyridine-5-carbonyl)-1H-indol-4-yl]ethan-1-ol], the EC50 under setting [1] is below 100000 nM.

As to `O=C(c1cc2ccccc2[nH]1)N1CCc2nc(NC(=O)C3(F)CC3)sc2C1` [Example 337, 1-fluoro-N-[5-(1H-indole-2-carbonyl)-4H,5H,6H,7H-[1,3]thiazolo[5,4-c]pyridin-2-yl]cyclopropane-1-carboxamide], under setting [1], the EC50 is below 1000 nM.

Consider `COCC1(Nc2nc3c(s2)CN(C(=O)c2cc4ccccc4[nH]2)CC3)CCC1` [Example 347, 5-(1H-indole-2-carbonyl)-N-[1-(methoxymethyl)cyclobutyl]-4H,5H,6H,7H-[1,3]thiazolo[5,4-c]pyridin-2-amine], for which the EC50 under setting [1] was below 1000 nM.

Take `CC(C)c1cccc2[nH]c(C(=O)N3CCc4nc(NCC5(O)CCC5)sc4C3)cc12` [Example 368, 1-[({5-[4-(propan-2-yl)-1H-indole-2-carbonyl]-4H,5H,6H,7H-[1,3]thiazolo[5,4-c]pyridin-2-yl}amino)methyl]cyclobutan-1-ol]: the EC50 under setting [1] was below 1000 nM.

On to `O=C(c1cc2ccccc2[nH]1)N1CCc2nc(NC34CC(C3)C4)sc2C1` [Example 431, N-{bicyclo[1.1.1]pentan-1-yl}-5-(1H-indole-2-carbonyl)-4H,5H,6H,7H-[1,3]thiazolo[5,4-c]pyridin-2-amine], for which, under setting [1], the EC50 is below 1000 nM.

Turning to `CC1(C(=O)Nc2nc3c(s2)CN(C(=O)c2cc4cc(F)c(Cl)cc4[nH]2)CC3)CC1` [Example 304, N-[5-(6-chloro-5-fluoro-1H-indole-2-carbonyl)-4H,5H,6H,7H-[1,3]thiazolo[5,4-c]pyridin-2-yl]-1-methylcyclopropane-1-carboxamide], under setting [1], the half-maximal effective concentration (EC50) is below 1000 nM.

Take `O=C(c1cc2ccccc2[nH]1)N1CCc2nc(Cl)sc2C1` [Example 207, 2-{2-chloro-4H,5H,6H,7H-[1,3]thiazolo[5,4-c]pyridine-5-carbonyl}-1H-indole]: the EC50 under setting [1] is below 100000 nM.

`CCc1c(F)ccc2[nH]c(C(=O)N3CCc4nc(NCC5CCOC5)sc4C3)cc12` (centres unmarked) [Example 256, 5-(4-ethyl-5-fluoro-1H-indole-2-carbonyl)-N-[(oxolan-3-yl)methyl]-4H,5H,6H,7H-[1,3]thiazolo[5,4-c]pyridin-2-amine]: the EC50 under setting [1] was below 100000 nM.

For `O=C(c1cc2ccccc2[nH]1)N1CCc2nc(N[C@@H]3CCCC[C@@H]3O)sc2C1` [Example 348, (1S,2R)-2-{[5-(1H-indole-2-carbonyl)-4H,5H,6H,7H-[1,3]thiazolo[5,4-c]pyridin-2-yl]amino}cyclohexan-1-ol], under setting [1], the concentration giving a half-maximal response (EC50) is below 1000 nM.

With `O=C(CC1CCOC1)Nc1nc2c(s1)CN(C(=O)c1cc3ccccc3[nH]1)CC2` (centres unmarked) [Example 351, N-[5-(1H-indole-2-carbonyl)-4H,5H,6H,7H-[1,3]thiazolo[5,4-c]pyridin-2-yl]-2-(oxolan-3-yl)acetamide], the EC50 under setting [1] was below 1000 nM.

For the compound `O=C(c1cc2ccccc2[nH]1)N1CCc2nc(NCC3(C(=O)O)CC3)sc2C1` [Example 345, 1-({[5-(1H-indole-2-carbonyl)-4H,5H,6H,7H-[1,3]thiazolo[5,4-c]pyridin-2-yl]amino}methyl)cyclopropane-1-carboxylic acid], under setting [1], the EC50 is 1000 to 10000 nM.

On to `CC1(C(=O)Nc2nc3c(s2)CN(C(=O)c2cc4c(Cl)cccc4[nH]2)CC3)CC1` [Example 308, N-[5-(4-chloro-1H-indole-2-carbonyl)-4H,5H,6H,7H-[1,3]thiazolo[5,4-c]pyridin-2-yl]-1-methylcyclopropane-1-carboxamide], for which, under setting [1], the EC50 was below 1000 nM.

Turning to `Cc1c(F)ccc2[nH]c(C(=O)N3CCc4nc(N)sc4C3)cc12` [Example 437, 5-(5-fluoro-4-methyl-1H-indole-2-carbonyl)-4H,5H,6H,7H-[1,3]thiazolo[5,4-c]pyridin-2-amine], the EC50 under setting [1] is below 1000 nM.

Turning to `CCc1cc(F)cc2[nH]c(C(=O)N3CCc4nc(NC(=O)C5(C)CC5)sc4C3)cc12` [Example 306, N-[5-(4-ethyl-6-fluoro-1H-indole-2-carbonyl)-4H,5H,6H,7H-[1,3]thiazolo[5,4-c]pyridin-2-yl]-1-methylcyclopropane-1-carboxamide], under setting [1], the EC50 is below 1000 nM.

For `O=C(Nc1nc2c(s1)CN(C(=O)c1cc3c(F)c(F)ccc3[nH]1)CC2)C1CCOCC1` [Example 398, N-[5-(4,5-difluoro-1H-indole-2-carbonyl)-4H,5H,6H,7H-[1,3]thiazolo[5,4-c]pyridin-2-yl]oxane-4-carboxamide], the EC50 under setting [1] was below 1000 nM.

As for `O=C(Nc1nc2c(s1)CN(C(=O)c1cc3ccccc3[nH]1)CC2)C1CNC1` [Example 386, N-[5-(1H-indole-2-carbonyl)-4H,5H,6H,7H-[1,3]thiazolo[5,4-c]pyridin-2-yl]azetidine-3-carboxamide hydrochloride], the EC50 (HePAD38, 144 h) was 1000 to 10000 nM.

As to `O=C(c1cc2ccccc2[nH]1)N1CCc2nc(NCCn3ccnc3)sc2C1` [Example 349, N-[2-(1H-imidazol-1-yl)ethyl]-5-(1H-indole-2-carbonyl)-4H,5H,6H,7H-[1,3]thiazolo[5,4-c]pyridin-2-amine], under setting [1], the EC50 is below 1000 nM.
